From patent US4684664A, “Derivatives of β-(4-isocyano-1,2,3,4-diepoxycyclopentyl) acrylic acid” (Kureha Kagaku Kogyo Kabushiki Kaisha, priority 1984, dated 1987)
Converted amounts (≈) assume the structure as drawn.

Key:
Format in all cases: cell-based
[1] = test system: Staphylococcus aureus MS 353; assay: Antibacterial activity, agar-dilution MIC, organism No. 3; conditions: Staphylococcus aureus, MS353, read-out: Minimum Inhibitory Concentration
Method in brief: (§1)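 Testing uses agar dilution in bouillon agar. MIC = lowest inhibiting concentration, μg/ml medium.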

[2] = test system: Salmonella enteritidis G 14; assay: Antibacterial activity, agar-dilution MIC, organism No. 12; conditions: Salmonella enterica, ENTERITIDIS, read-out: Minimum Inhibitory Concentration
Method in brief: as §1

[3] = test system: Micrococcus luteus ATCC 9341; assay: Antibacterial activity, agar-dilution MIC, organism No. 25; conditions: Micrococcus luteus, ATCC9341, read-out: Minimum Inhibitory Concentration
Method in brief: as §1

[4] = test system: Staphylococcus aureus FDA 209PJc-1; assay: Antibacterial activity, agar-dilution MIC, organism No. 1; conditions: Staphylococcus aureus, FDA209PJC1, read-out: Minimum Inhibitory Concentration
Method in brief: as §1

[5] = test system: Pseudomonas aeruginosa NCTC 10490; assay: Antibacterial activity, agar-dilution MIC, organism No. 16; conditions: Pseudomonas aeruginosa, NCTC10490, read-out: Minimum Inhibitory Concentration
Method in brief: as §1

[6] = test system: Proteus vulgaris OX-19; assay: Antibacterial activity, agar-dilution MIC, organism No. 20; conditions: Proteus vulgaris, OX19, read-out: Minimum Inhibitory Concentration
Method in brief: as §1

[7] = test system: Proteus rettgeri IFO 3850; assay: Antibacterial activity, agar-dilution MIC, organism No. 22; conditions: Providencia rettgeri, IFO3850, read-out: Minimum Inhibitory Concentration
Method in brief: as §1

[8] = test system: Proteus morganii IFO 3848; assay: Antibacterial activity, agar-dilution MIC, organism No. 18; conditions: Morganella morganii, IFO3848, read-out: Minimum Inhibitory Concentration
Method in brief: as §1

[9] = test system: Salmonella typhi 901; assay: Antibacterial activity, agar-dilution MIC, organism No. 9; conditions: Salmonella enterica, TYPHI, read-out: Minimum Inhibitory Concentration
Method in brief: as §1

[10] = test system: Bacillus subtilis ATCC 6633; assay: Antibacterial activity, agar-dilution MIC, organism No. 14; conditions: Bacillus subtilis, ATCC6633, read-out: Minimum Inhibitory Concentration
Method in brief: as §1

[11] = test system: Candida albicans IAM 4905; assay: Antifungal activity, agar-dilution MIC, organism No. 29; conditions: Candida albicans, IAM4905, read-out: Minimum Inhibitory Concentration
Method in brief: as §1

[12] = test system: Salmonella shottmuelleri 8006; assay: Antibacterial activity, agar-dilution MIC, organism No. 11; conditions: Salmonella, 8006, read-out: Minimum Inhibitory Concentration
Method in brief: as §1

[13] = test system: Enterobacter cloacae 963; assay: Antibacterial activity, agar-dilution MIC, organism No. 24; conditions: Enterobacter cloacae, 963, read-out: Minimum Inhibitory Concentration
Method in brief: as §1

[14] = test system: Salmonella typhimurium IID 971; assay: Antibacterial activity, agar-dilution MIC, organism No. 8; conditions: Salmonella enterica, read-out: Minimum Inhibitory Concentration
Method in brief: as §1

[15] = test system: Escherichia coli NIHJ-JC-2; assay: Antibacterial activity, agar-dilution MIC, organism No. 5; conditions: Escherichia coli, NIHJJC2, read-out: Minimum Inhibitory Concentration
Method in brief: as §1

[16] = test system: Pseudomonas aeruginosa PAO 1; assay: Antibacterial activity, agar-dilution MIC, organism No. 17; conditions: Pseudomonas aeruginosa, PAO1, read-out: Minimum Inhibitory Concentration
Method in brief: as §1

[17] = test system: Enterobacter aerogenes ATCC 13048; assay: Antibacterial activity, agar-dilution MIC, organism No. 23; conditions: Klebsiella aerogenes, ATCC13048, read-out: Minimum Inhibitory Concentration
Method in brief: as §1

[18] = test system: Streptococcus pyogenes IFO 3340; assay: Antibacterial activity, agar-dilution MIC, organism No. 26; conditions: Streptococcus pyogenes, IFO3340, read-out: Minimum Inhibitory Concentration
Method in brief: as §1

[19] = test system: Staphylococcus aureus Terajima; assay: Antibacterial activity, agar-dilution MIC, organism No. 2; conditions: Staphylococcus aureus, read-out: Minimum Inhibitory Concentration
Method in brief: as §1

[20] = test system: Escherichia coli K12 C600 IAM 1264; assay: Antibacterial activity, agar-dilution MIC, organism No. 6; conditions: Escherichia coli, IAM1264, read-out: Minimum Inhibitory Concentration
Method in brief: as §1

[21] = test system: Proteus vulgaris HX-19; assay: Antibacterial activity, agar-dilution MIC, organism No. 21; conditions: Proteus vulgaris, HX19, read-out: Minimum Inhibitory Concentration
Method in brief: as §1

[22] = test system: Salmonella paratyphi-A 1015; assay: Antibacterial activity, agar-dilution MIC, organism No. 10; conditions: Salmonella enterica, PARATYPHI, read-out: Minimum Inhibitory Concentration
Method in brief: as §1

[23] = test system: Proteus mirabilis IFO 3849; assay: Antibacterial activity, agar-dilution MIC, organism No. 19; conditions: Proteus mirabilis, IFO3849, read-out: Minimum Inhibitory Concentration
Method in brief: as §1

[24] = test system: Serratia marcescens IAM 1184; assay: Antibacterial activity, agar-dilution MIC, organism No. 13; conditions: Serratia marcescens, IAM1184, read-out: Minimum Inhibitory Concentration
Description: Agar-dilution method was used for determination of the antibacterial activity and antifungal activity while using bouillon-agar culture medium, and the minimum inhibitory concentration of the specimen was expressed by μg/ml of the culture medium.

[25] = test system: Aspergillus niger IFO 6342; assay: Antifungal activity, agar-dilution MIC, organism No. 30; conditions: Aspergillus niger, IFO6342, read-out: Minimum Inhibitory Concentration
Method in brief: as §1

[26] = test system: Pseudomonas aeruginosa IFO 3445; assay: Antibacterial activity, agar-dilution MIC, organism No. 15; conditions: Pseudomonas aeruginosa, IFO3445, read-out: Minimum Inhibitory Concentration
Method in brief: as §1

[27] = test system: Streptococcus pyogenes Cook; assay: Antibacterial activity, agar-dilution MIC, organism No. 4; conditions: Streptococcus pyogenes, read-out: Minimum Inhibitory Concentration
Method in brief: as §1

[28] = test system: Streptococcus faecium IFO 3826; assay: Antibacterial activity, agar-dilution MIC, organism No. 27; conditions: Enterococcus faecium, IFO3826, read-out: Minimum Inhibitory Concentration
Method in brief: as §1

[29] = test system: Klebsiella pneumoniae PCI-602; assay: Antibacterial activity, agar-dilution MIC, organism No. 7; conditions: Klebsiella pneumoniae, PCI602, read-out: Minimum Inhibitory Concentration
Method in brief: as §1

Q: With `[C-]#[N+]C12CC3(/C=C/C(=O)Nc4ccc(OC)cc4)OC3C1O2` (stereo not shown) [compound 53] as the compound, how does the MIC [1] read?
A: < 0.05 µg/mL

Q: What about the MIC [2] of the same compound?
A: 0.39 µg/mL (≈ 1.31 µM)

Q: And the MIC [3]?
A: < 0.05 µg/mL

Q: And the MIC [4]?
A: < 0.05 µg/mL

Q: What about the MIC [5] of the same compound?
A: > 200 µg/mL

Q: What about the MIC [6] of the same compound?
A: < 0.05 µg/mL

Q: And the MIC [7]?
A: 0.78 µg/mL (≈ 2.61 µM)

Q: And the MIC [8]?
A: < 0.05 µg/mL

Q: What about the MIC [9] of the same compound?
A: 0.39 µg/mL (≈ 1.31 µM)

Q: And the MIC [10]?
A: 6.25 µg/mL (≈ 21 µM)

Q: And the MIC [11]?
A: 0.79 µg/mL (≈ 2.65 µM)

Q: And the MIC [12]?
A: < 0.05 µg/mL

Q: And the MIC [13]?
A: 50 µg/mL (≈ 168 µM)

Q: And the MIC [14]?
A: 1.56 µg/mL (≈ 5.23 µM)

Q: What about the MIC [15] of the same compound?
A: 12.5 µg/mL (≈ 41.9 µM)

Q: And the MIC [16]?
A: > 200 µg/mL

Q: And the MIC [17]?
A: > 200 µg/mL

Q: What about the MIC [18] of the same compound?
A: 0.39 µg/mL (≈ 1.31 µM)

Q: What about the MIC [19] of the same compound?
A: < 0.05 µg/mL

Q: And the MIC [20]?
A: 3.13 µg/mL (≈ 10.5 µM)

Q: And the MIC [21]?
A: < 0.05 µg/mL

Q: And the MIC [22]?
A: < 0.05 µg/mL

Q: And the MIC [23]?
A: 3.13 µg/mL (≈ 10.5 µM)

Q: And the MIC [24]?
A: 25 µg/mL (≈ 83.8 µM)

Q: What about the MIC [25] of the same compound?
A: 1.56 µg/mL (≈ 5.23 µM)

Q: What about the MIC [26] of the same compound?
A: > 200 µg/mL

Q: What about the MIC [27] of the same compound?
A: 6.25 µg/mL (≈ 21 µM)

Q: And the MIC [28]?
A: 6.25 µg/mL (≈ 21 µM)

Q: And the MIC [29]?
A: < 0.05 µg/mL

Q: Which MIC [1] does the source give for `[C-]#[N+]C12CC3(/C=C/C(=O)Nc4ccc(O)cc4)OC3C1O2` (stereo not shown) [compound 56] here?
A: 1.56 µg/mL (≈ 5.49 µM)

Q: What about the MIC [2] of the same compound?
A: 6.25 µg/mL (≈ 22 µM)

Q: What about the MIC [3] of the same compound?
A: 0.78 µg/mL (≈ 2.74 µM)

Q: And the MIC [4]?
A: 1.56 µg/mL (≈ 5.49 µM)

Q: And the MIC [5]?
A: > 200 µg/mL

Q: What about the MIC [6] of the same compound?
A: 3.13 µg/mL (≈ 11 µM)

Q: What about the MIC [7] of the same compound?
A: 3.13 µg/mL (≈ 11 µM)

Q: What about the MIC [8] of the same compound?
A: 1.56 µg/mL (≈ 5.49 µM)

Q: What about the MIC [9] of the same compound?
A: 6.25 µg/mL (≈ 22 µM)

Q: What about the MIC [10] of the same compound?
A: 12.5 µg/mL (≈ 44 µM)

Q: What about the MIC [11] of the same compound?
A: 25 µg/mL (≈ 87.9 µM)

Q: And the MIC [12]?
A: 3.13 µg/mL (≈ 11 µM)

Q: And the MIC [13]?
A: 200 µg/mL (≈ 704 µM)

Q: And the MIC [14]?
A: 12.5 µg/mL (≈ 44 µM)

Q: What about the MIC [15] of the same compound?
A: 25 µg/mL (≈ 87.9 µM)

Q: What about the MIC [16] of the same compound?
A: > 200 µg/mL

Q: What about the MIC [17] of the same compound?
A: > 200 µg/mL

Q: What about the MIC [18] of the same compound?
A: 3.13 µg/mL (≈ 11 µM)

Q: And the MIC [19]?
A: 6.25 µg/mL (≈ 22 µM)

Q: What about the MIC [20] of the same compound?
A: 25 µg/mL (≈ 87.9 µM)

Q: And the MIC [21]?
A: 1.56 µg/mL (≈ 5.49 µM)

Q: And the MIC [22]?
A: 3.13 µg/mL (≈ 11 µM)

Q: And the MIC [23]?
A: 12.5 µg/mL (≈ 44 µM)

Q: And the MIC [24]?
A: 50 µg/mL (≈ 176 µM)

Q: And the MIC [25]?
A: 50 µg/mL (≈ 176 µM)

Q: What about the MIC [26] of the same compound?
A: > 200 µg/mL

Q: What about the MIC [27] of the same compound?
A: 25 µg/mL (≈ 87.9 µM)

Q: And the MIC [28]?
A: 50 µg/mL (≈ 176 µM)

Q: What about the MIC [29] of the same compound?
A: 1.56 µg/mL (≈ 5.49 µM)
